Measurements from patent US20030181527A1, “Novel formulations of alpha-2,4-disulfophenyl-n-tert-butylnitrone” (priority 2000, published 2003).

How the values were obtained:
Type in all cases: physicochemical
[1] = Stability of buffered and unbuffered solutions and concentrates at room temperature
From the text: In a further study the stability of both buffered (sodium hydrogen carbonate) and unbuffered aqueous solutions and concentrates of α-(2,4-disulfophenyl)-N-tert-butylnitrone disodium salt stored at room temperature were compared. […] The buffered solutions show no apparent concentration dependent decomposition due to the short storage time and moderate storage temperature.

[2] = Stability with air or nitrogen filled headspaces (Table 5); details: 400 mg/ml
Description: A 400 mg/ml concentrate of α-(2,4-disulfophenyl)-N-tert-butylnitrone disodium salt was prepared by adding α-(2,4-disulfophenyl)-N-tert-butylnitrone disodium salt (1500 g) to water for injection (2200 ml) containing dissolved disodium hydrogen phosphate dihydrate (3.51 g). The solution was then adjusted to pH 8.5 by the addition of 2M sodium hydroxide solution and then water for injection was added to give a final volume of 3750 ml. After preparation, the solution was purged with nitrogen for 90 minutes and then placed in 10 ml glass vials with a fill volume of 7.7 ml. Before stoppering the vials, the headspace was purged with nitrogen. […] The vials were stored either at +5° C. at ambient humidity or at +25° C. and 60% relative humidity.
A second batch of 400 mg/ml concentrate of α-(2,4-disulfophenyl)-N-tert-butylnitrone disodium salt buffered with 50 mM phosphate buffer was treated identically except that the headspace was filled with air not nitrogen and the fill volume was 10.5 ml.

[3] = Stability versus concentration, vial size and headspace gas at +40° C. (Table 6); details: 10 ml vial
Description: For the 10 ml vial size, the fill volume was 10.7 ml; and for the 20 ml vial size, the fill volume was 20.7 ml.

[4] = 7.5 mg/ml buffered (sodium hydrogen carbonate), 0 hours
[5] = 7.5 mg/ml buffered (sodium hydrogen carbonate), 48 hours
[6] = 75 mg/ml buffered (sodium hydrogen carbonate), 0 hours
[7] = 75 mg/ml buffered (sodium hydrogen carbonate), 48 hours
[8] = 150 mg/ml buffered (sodium hydrogen carbonate), 0 hours
[9] = 150 mg/ml buffered (sodium hydrogen carbonate), 48 hours

CC(C)(C)[N+]([O-])=Cc1ccc(S(=O)(=O)[O-])cc1S(=O)(=O)[O-].[Na+].[Na+] [α-(2,4-disulfophenyl)-N-tert-butylnitrone disodium salt]
Amount of Aldehyde (II) [1, 4]: 0.6 Area % | pH [1, 4]: 8.1 | Amount of Aldehyde (II) [1, 5]: 0.7 Area % | pH [1, 5]: 8.7 | Amount of Aldehyde (II) ([1]; 7.5 mg/ml unbuffered, 0 hours): 1.0 Area % | pH ([1]; 7.5 mg/ml unbuffered, 0 hours): 5.8 | Amount of Aldehyde (II) ([1]; 7.5 mg/ml unbuffered, 48 hours): 2.4 Area % | pH ([1]; 7.5 mg/ml unbuffered, 48 hours): 6.3 | Amount of Aldehyde (II) [1, 6]: 0.6 Area % | pH [1, 6]: 8.0 | Amount of Aldehyde (II) [1, 7]: 0.7 Area % | pH [1, 7]: 8.1 | Amount of Aldehyde (II) ([1]; 75 mg/ml unbuffered, 0 hours): 1.1 Area % | pH ([1]; 75 mg/ml unbuffered, 0 hours): 6.1 | Amount of Aldehyde (II) ([1]; 75 mg/ml unbuffered, 48 hours): 1.9 Area % | pH ([1]; 75 mg/ml unbuffered, 48 hours): 6.7 | Amount of Aldehyde (II) [1, 8]: 0.6 Area % | pH [1, 8]: 7.9 | Amount of Aldehyde (II) [1, 9]: 0.7 Area % | pH [1, 9]: 7.8 | Amount of Aldehyde (II) ([1]; 150 mg/ml unbuffered, 0 hours): 1.0 Area % | pH ([1]; 150 mg/ml unbuffered, 0 hours): 6.1 | Amount of Aldehyde (II) ([1]; 150 mg/ml unbuffered, 48 hours): 1.7 Area % | pH ([1]; 150 mg/ml unbuffered, 48 hours): 6.7 | Amount of Aldehyde (II) ([2]; 50 mM phosphate, air-filled headspace, fill 10.5 ml, +5° C., 0 months): 0.3 area % | Amount of Aldehyde (II) ([2]; 50 mM phosphate, air-filled headspace, fill 10.5 ml, +5° C., 3 months): 0.3 area % | Amount of Aldehyde (II) ([2]; 50 mM phosphate, air-filled headspace, fill 10.5 ml, +5° C., 6 months): 0.5 area % | Amount of Aldehyde (II) ([2]; 50 mM phosphate, air-filled headspace, fill 10.5 ml, +5° C., 12 months): 0.4 area % | Amount of Aldehyde (II) ([2]; 50 mM phosphate, air-filled headspace, fill 10.5 ml, +25° C./60% RH, 0 months): 0.3 area % | Amount of Aldehyde (II) ([2]; 50 mM phosphate, air-filled headspace, fill 10.5 ml, +25° C./60% RH, 3 months): 0.7 area % | Amount of Aldehyde (II) ([2]; 50 mM phosphate, air-filled headspace, fill 10.5 ml, +25° C./60% RH, 6 months): 1.0 area % | Amount of Aldehyde (II) ([2]; 50 mM phosphate, air-filled headspace, fill 10.5 ml, +25° C./60% RH, 12 months): 0.7 area % | Amount of Aldehyde (II) ([2]; pH 8.5, nitrogen-filled headspace, fill 7.7 ml, +5° C., 0 months): 0.2 area % | Amount of Aldehyde (II) ([2]; pH 8.5, nitrogen-filled headspace, fill 7.7 ml, +5° C., 3 months): 0.2 area % | Amount of Aldehyde (II) ([2]; pH 8.5, nitrogen-filled headspace, fill 7.7 ml, +5° C., 6 months): 0.2 area % | Amount of Aldehyde (II) ([2]; pH 8.5, nitrogen-filled headspace, fill 7.7 ml, +5° C., 12 months): 0.3 area % | Amount of Aldehyde (II) ([2]; pH 8.5, nitrogen-filled headspace, fill 7.7 ml, +25° C./60% RH, 0 months): 0.2 area % | Amount of Aldehyde (II) ([2]; pH 8.5, nitrogen-filled headspace, fill 7.7 ml, +25° C./60% RH, 3 months): 0.4 area % | Amount of Aldehyde (II) ([2]; pH 8.5, nitrogen-filled headspace, fill 7.7 ml, +25° C./60% RH, 6 months): 0.3 area % | Amount of Aldehyde (II) ([2]; pH 8.5, nitrogen-filled headspace, fill 7.7 ml, +25° C./60% RH, 12 months): 0.5 area % | Amount of Aldehyde (II) ([3]; 50 mg/ml, N2 in headspace, 2 months at +40° C.): 1.4 w/w % | Amount of Aldehyde (II) ([3]; 50 mg/ml, N2 in headspace, 3 months at +40° C.): 1.5 w/w % | Amount of Aldehyde (II) ([3]; 50 mg/ml, N2 in headspace, 6 months at +40° C.): 1.7 w/w % | Amount of Aldehyde (II) ([3]; 50 mg/ml, N2 in headspace, initial): 0.2 w/w % | Amount of Aldehyde (II) ([3]; 50 mg/ml, air in headspace, 2 months at +40° C.): 2.8 w/w % | Amount of Aldehyde (II) ([3]; 50 mg/ml, air in headspace, 3 months at +40° C.): 3.3 w/w % | Amount of Aldehyde (II) ([3]; 50 mg/ml, air in headspace, 6 months at +40° C.): 3.5 w/w % | Amount of Aldehyde (II) ([3]; 50 mg/ml, air in headspace, initial): 0.2 w/w % | Amount of Aldehyde (II) ([3]; 100 mg/ml, air in headspace, 2 months at +40° C.): 1.8 w/w % | Amount of Aldehyde (II) ([3]; 100 mg/ml, air in headspace, initial): 0.2 w/w % | Amount of Aldehyde (II) ([3]; 400 mg/ml, N2 in headspace, 2 months at +40° C.): 0.5 w/w % | Amount of Aldehyde (II) ([3]; 400 mg/ml, N2 in headspace, 3 months at +40° C.): 0.6 w/w % | Amount of Aldehyde (II) ([3]; 400 mg/ml, N2 in headspace, initial): 0.3 w/w % | Amount of Aldehyde (II) ([3]; 400 mg/ml, air in headspace, 2 months at +40° C.): 0.8 w/w % | Amount of Aldehyde (II) ([3]; 400 mg/ml, air in headspace, 3 months at +40° C.): 0.9 w/w %
